Test results reported in US11365188B2, “JAK inhibitors” (priority 2018, dated 2022).

Molecular target: JAK1 (Homo sapiens, UniProt P23458)
Test: JAK Kinase Assay (JAK1, Caliper EZ Reader, fluoresceinated peptide)
Format: biochemical
Settings: ATP 76.5 μM; JAK1 10 nM; 120 minutes at room temperature; read-out: JAK1 inhibition
Description: JAK Kinase Assay 384-well plates in the left foot butoxy measured progress. The final assay volume was 25 μL, 250 nL 100× compounds, 10 μL enzyme mix and 15 μL substrate mix (fluoresceinated peptide and ATP) in assay buffer (20 mM HEPES (pH 7.5), 10 mM MgCl2, […], 0.5 mM EGTA and 2 mM DTT) prepared as test compound. By mixing the JAK1 with substrates and test compounds to start the reaction. There action mixture was incubated for 120 minutes at room temperature, then added 30 μL stop buffer for each sample to terminate the reaction with 50 mM EDTA. After termination of the kinase reaction, the proportion of phosphorylated product was determined as a fraction of total peptide substrate using Caliper EZ Reader II. Inhibition data were calculated by comparison with 100% of the reaction mixture without enzyme inhibition and vehicle-only reaction mixture billion % inhibition compared. The final concentration of reagents in the assays is: ATP, 76.5 μM; JAK1 fluorescent peptide (5-FAM-EEPLYWSFPAKKK-CONH2), 3 μM; JAK1, 10 nM, and DMSO, 1%. Dose response curve were generated to determine the concentration required for IC50 of JAK activity.

Chain of JAK1 (P23458 whole entry, species assumed): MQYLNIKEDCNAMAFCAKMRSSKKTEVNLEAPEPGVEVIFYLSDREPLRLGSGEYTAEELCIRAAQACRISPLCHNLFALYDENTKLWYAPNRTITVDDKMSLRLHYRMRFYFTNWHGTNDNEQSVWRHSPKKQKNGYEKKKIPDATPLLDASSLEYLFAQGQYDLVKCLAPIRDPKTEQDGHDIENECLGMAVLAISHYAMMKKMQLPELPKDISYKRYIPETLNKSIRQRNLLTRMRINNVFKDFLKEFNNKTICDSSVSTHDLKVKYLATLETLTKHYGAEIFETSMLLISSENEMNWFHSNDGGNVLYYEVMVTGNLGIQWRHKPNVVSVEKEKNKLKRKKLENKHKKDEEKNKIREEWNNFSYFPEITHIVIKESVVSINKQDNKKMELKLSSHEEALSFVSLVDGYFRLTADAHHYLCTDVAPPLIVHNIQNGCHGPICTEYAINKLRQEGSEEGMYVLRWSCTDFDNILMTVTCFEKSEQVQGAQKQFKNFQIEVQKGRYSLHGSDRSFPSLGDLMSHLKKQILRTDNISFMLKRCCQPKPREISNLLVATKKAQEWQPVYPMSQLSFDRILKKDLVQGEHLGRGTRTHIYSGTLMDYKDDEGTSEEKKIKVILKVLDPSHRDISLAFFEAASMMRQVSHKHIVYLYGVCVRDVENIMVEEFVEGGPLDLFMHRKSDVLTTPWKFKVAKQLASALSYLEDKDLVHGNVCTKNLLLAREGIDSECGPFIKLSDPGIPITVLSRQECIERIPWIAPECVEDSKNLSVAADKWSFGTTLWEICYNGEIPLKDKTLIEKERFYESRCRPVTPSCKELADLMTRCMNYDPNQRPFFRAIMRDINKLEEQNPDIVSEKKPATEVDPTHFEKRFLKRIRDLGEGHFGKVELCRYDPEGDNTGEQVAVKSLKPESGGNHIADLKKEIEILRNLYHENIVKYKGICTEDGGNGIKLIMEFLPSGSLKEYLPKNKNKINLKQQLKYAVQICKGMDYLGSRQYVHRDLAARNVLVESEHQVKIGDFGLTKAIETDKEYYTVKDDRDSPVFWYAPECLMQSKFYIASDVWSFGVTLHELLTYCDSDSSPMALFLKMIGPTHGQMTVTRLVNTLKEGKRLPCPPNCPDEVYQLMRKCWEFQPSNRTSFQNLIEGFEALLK

SMILES | IC50
CN(c1ncnc2[nH]ccc12)C1CC2(C1)CN(C(=O)c1cc(F)c(C#N)c(F)c1)C2 [Compound 52, 2,6-difluoro-4-(6-(methyl(7H-pyrrolo[2,3-d]pyrimidin-4-yl)amino)-2-azaspiro[3.3]heptane-2-carbonyl)benzonitrile] | 10 to 100 nM
CN(c1ncnc2[nH]ccc12)C1CCC2(CC1)CCN(C(=O)NCC(F)(F)F)CC2 [Compound 109, 9-(methyl(7H-pyrrolo[2,3-d]pyrimidin-4-yl)amino)-N-(2,2,2-trifluoroethyl)-3-azaspiro[5.5]undecane-3-carboxamide] | 10 to 100 nM
CN(c1ncnc2[nH]ccc12)C1CCC2(CC1)CCN(C(=O)CCS(N)(=O)=O)CC2 [Compound 113, 3-(9-(methyl(7H-pyrrolo[2,3-d]pyrimidin-4-yl)amino)-3-azaspiro[5.5]undecan-3-yl)-3-oxopropane-1-sulfonamide] | 1000 to 10000 nM
CN(c1ncnc2[nH]ccc12)C1CC2(C1)CN(C(=O)c1cccc(F)c1F)C2 [Compound 55, (2,3-difluorophenyl)(6-(methyl(7H-pyrrolo[2,3-d]pyrimidin-4-yl)amino)-2-azaspiro[3.3]heptan-2-yl)methanone] | 10 to 100 nM
Cc1cc(C(=O)N2CC3(CC(N(C)c4ncnc5[nH]ccc45)C3)C2)c(F)cc1C#N [Compound 54, 5-fluoro-2-methyl-4-(6-(methyl(7H-pyrrolo[2,3-d]pyrimidin-4-yl)amino)-2-azaspiro[3.3]heptane-2-carbonyl)benzonitrile] | 10 to 100 nM
CN(c1ncnc2[nH]ccc12)C1CCC2(CC1)CCN(C(=O)COc1ccc(C#N)c(F)c1F)CC2 [Compound 118, 2,3-difluoro-4-(2-(9-(methyl(7H-pyrrolo[2,3-d]pyrimidin-4-yl)amino)-3-azaspiro[5.5]undecan-3-yl)-2-oxoethoxy)benzonitrile] | 10 to 100 nM
COCC(=O)N1CCC2(CCC(N(C)c3ncnc4[nH]ccc34)CC2)CC1 [Compound 72, 2-methoxy-1-(9-(methyl(7H-pyrrolo[2,3-d]pyrimidin-4-yl)amino)-3-azaspiro[5.5]undecan-3-yl)ethan-1-one] | 10 to 100 nM
Cc1cnc(NC(=O)N2CCC3(CCC(N(C)c4ncnc5[nH]ccc45)CC3)CC2)s1 [Compound 126, 9-(methyl(7H-pyrrolo[2,3-d]pyrimidin-4-yl)amino)-N-(5-methylthiazol-2-yl)-3-azaspiro[5.5]undecane-3-carboxamide] | 100 to 1000 nM
CN(c1ncnc2[nH]ccc12)C1CCC2(CC1)CCN(C(=O)Nc1ccn(C)n1)CC2 [Compound 127, 9-(methyl(7H-pyrrolo[2,3-d]pyrimidin-4-yl)amino)-N-(1-methyl-1H-pyrazol-3-yl)-3-azaspiro[5.5]undecane-3-carboxamide] | 100 to 1000 nM

The next lines start with the values.

IC50 | SMILES
≤ 10 nM | CN(c1ncnc2[nH]ccc12)C1CC2(C1)CN(C(=O)c1ccc(C#N)c(Cl)c1Cl)C2 [Compound 60, 2,3-Dichloro-4-{6-[methyl-(7H-pyrrolo[2,3-d]pyrimidin-4-yl)-amino]-2-aza-spiro[3.3]heptane-2-carbonyl}-benzonitrile]
≤ 10 nM | CN(c1ncnc2[nH]ccc12)C1CCC2(CC1)CCN(C(=O)COc1cc(F)cc(C#N)c1)CC2 [Compound 114, 3-fluoro-5-(2-(9-(methyl(7H-pyrrolo[2,3-d]pyrimidin-4-yl)amino)-3-azaspiro[5.5]undecan-3-yl)-2-oxoethoxy)benzonitrile]
≤ 10 nM | CN(c1ncnc2[nH]ccc12)C1CC2(C1)CN(C(=O)c1cc(F)cc(C#N)c1)C2 [Compound 58, 3-Fluoro-5-{6-[methyl-(7H-pyrrolo[2,3-d]pyrimidin-4-yl)-amino]-2-aza-spiro[3.3]heptane-2-carbonyl}-benzonitrile]
≤ 10 nM | CN(c1ncnc2[nH]ccc12)C1CC2(C1)CN(C(=O)c1ccc(F)c(C#N)c1F)C2 [Compound 61, 2,6-Difluoro-3-{6-[methyl-(7H-pyrrolo[2,3-d]pyrimidin-4-yl)-amino]-2-aza-spiro[3.3]heptane-2-carbonyl}-benzonitrile]
≤ 10 nM | COc1nsc(NC(=O)N2CCC3(CCC(N(C)c4ncnc5[nH]ccc45)CC3)CC2)n1 [Compound 74, N-(3-methoxy-1,2,4-thiadiazol-5-yl)-9-(methyl(7H-pyrrolo[2,3-d]pyrimidin-4-yl)amino)-3-azaspiro[5.5]undecane-3-carboxamide]
≤ 10 nM | COc1nsc(NC(=O)N2CC3(CC(N(C)c4ncnc5[nH]ccc45)C3)C2)n1 [Compound 70, N-(3-methoxy-1,2,4-thiadiazol-5-yl)-6-(methyl(7H-pyrrolo[2,3-d]pyrimidin-4-yl)amino)-2-azaspiro[3.3]heptane-2-carboxamide]
≤ 10 nM | CN(c1ncnc2[nH]ccc12)C1CCC2(CC1)CCN(C(=O)COc1ccc(C#N)cc1)CC2 [Compound 115, 4-(2-(9-(methyl(7H-pyrrolo[2,3-d]pyrimidin-4-yl)amino)-3-azaspiro[5.5]undecan-3-yl)-2-oxoethoxy)benzonitrile]
